Columns and labels:
Format in all cases: in vivo
green foxtail = test: Test Example 3: weedkilling efficacy through soil treatment; E: green foxtail; conditions: soil treatment, treatment dosage 320 g/ha
How it was run: (§1)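 Crop and weed responses were judged three weeks after a uniform surface spray of the water-diluted emulsion at the given g/ha rate. Seeds sat beneath about 1.5 cm of sterilized diluvial soil, and boxes stood in a greenhouse at 25 to 30° C.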

barnyard grass [1] = test: Test Example 3: weedkilling efficacy through soil treatment; F: barnyard grass; conditions: soil treatment, treatment dosage 320 g/ha
Description: (§2) Weedkilling Efficacy Test Through Soil Treatment
(§3) Sterilized diluvial soil was introduced into 21 cm long, 13 cm wide, 7 cm deep plastic boxes, and seeds of crabgrass, green foxtail, barnyard grass, wild oat, black-grass, Italian ryegrass, common wind-grass, Indian mallow, redroot pigweed, fig-leafed goosefoot, chickweed, catchweed, birds-eye speedwell, corn, soybean, rice, wheat, beet and rapeseed were each spot-sown, and covered with about 1.5 cm of soil. Next, emulsions of compounds of the present invention prepared according to compounding example 2 were diluted with water to give the specified dosages, and applied uniformly onto the soil surface with a small sprayer. The plants were grown by placing the plastic boxes in a greenhouse at 25 to 30° C., and 3 weeks after the pesticide treatment the effect on each type of plant was investigated on the basis of the assessment criteria of test example 1.
(§4) A: barnyard grass, B: bulrush, C: oval-leafed pondweed, D: crabgrass, E: green foxtail, F: barnyard grass, G: wild oat, H: black-grass, I: Italian ryegrass, J: common wind-grass, K: Indian mallow, L: redroot pigweed, M: fig-leafed goosefoot, N: chickweed, O: catchweed, p: birds-eye speedwell, a: transplanted rice, b: directly sown rice, c: corn, d: soybean, e: wheat, f: beet, g: rapeseed
(§5) Further, pesticide dosage (g/ha) indicates the concentration regulated such that treatment was with only the stated number of grams (g), when calculated per hectare (ha).

oval-leafed pondweed [2] = test: Test Example 1: weedkilling efficacy, preemergent weed treatment in the submerged state; C: oval-leafed pondweed; conditions: treatment dosage 320 g/ha
How it was run: (§6)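 Emulsion diluted with water to the specified per-hectare dosage is applied onto flood water (4 cm) over alluvial soil on the sowing day, with barnyard grass, bulrush and pondweed seeded and rice (2.5-leaf) transplanted; plants grow at 25–30 °C and are rated at 3 weeks.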

bulrush [3] = test: Test Example 2: weedkilling efficacy, growth period weed treatment in the submerged state; B: bulrush; conditions: treatment dosage 320 g/ha
How it was run: (§7)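 First, alluvial soil in pots is flooded to 4 cm and mixed seed is sown. Next, plants grow in a greenhouse at 25 to 30° C until the 1-2 leaf stage. Then diluted emulsion is applied onto the water surface at the given g/ha rate, and injury is assessed after 3 weeks.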

Indian mallow = test: Test Example 3: weedkilling efficacy through soil treatment; K: Indian mallow; conditions: soil treatment, treatment dosage 320 g/ha
How it was run: as §1

birds-eye speedwell = test: Test Example 3: weedkilling efficacy through soil treatment; p: birds-eye speedwell; conditions: soil treatment, treatment dosage 320 g/ha
How it was run: as §1

barnyard grass [4] = test: Test Example 1: weedkilling efficacy, preemergent weed treatment in the submerged state; A: barnyard grass; conditions: treatment dosage 320 g/ha
How it was run: as §6

oval-leafed pondweed [5] = test: Test Example 2: weedkilling efficacy, growth period weed treatment in the submerged state; C: oval-leafed pondweed; conditions: treatment dosage 320 g/ha
How it was run: as §7

transplanted rice = test: Test Example 1: preemergent weed treatment in the submerged state, effect on crop; a: transplanted rice; conditions: treatment dosage 320 g/ha
How it was run: as §6

directly sown rice = test: Test Example 3: soil treatment, effect on crop; b: directly sown rice; conditions: soil treatment, treatment dosage 320 g/ha
How it was run: as §1

beet = test: Test Example 3: soil treatment, effect on crop; f: beet; conditions: soil treatment, treatment dosage 320 g/ha
How it was run: as §1

soybean = test: Test Example 3: soil treatment, effect on crop; d: soybean; conditions: soil treatment, treatment dosage 320 g/ha
How it was run: as §1

crabgrass = test: Test Example 3: weedkilling efficacy through soil treatment; D: crabgrass; conditions: soil treatment, treatment dosage 320 g/ha
How it was run: as §1

barnyard grass [6] = test: Test Example 2: weedkilling efficacy, growth period weed treatment in the submerged state; A: barnyard grass; conditions: treatment dosage 320 g/ha
How it was run: as §7

black-grass = test: Test Example 3: weedkilling efficacy through soil treatment; H: black-grass; conditions: soil treatment, treatment dosage 320 g/ha
How it was run: as §1

common wind-grass = test: Test Example 3: weedkilling efficacy through soil treatment; J: common wind-grass; conditions: soil treatment, treatment dosage 320 g/ha
Description: as §2, §3, §4, §5

rapeseed = test: Test Example 3: soil treatment, effect on crop; g: rapeseed; conditions: soil treatment, treatment dosage 320 g/ha
Description: as §2, §3, §4, §5

Italian ryegrass = test: Test Example 3: weedkilling efficacy through soil treatment; I: Italian ryegrass; conditions: soil treatment, treatment dosage 320 g/ha
How it was run: as §1

corn = test: Test Example 3: soil treatment, effect on crop; c: corn; conditions: soil treatment, treatment dosage 320 g/ha
How it was run: as §1

redroot pigweed = test: Test Example 3: weedkilling efficacy through soil treatment; L: redroot pigweed; conditions: soil treatment, treatment dosage 320 g/ha
How it was run: as §1

wheat = test: Test Example 3: soil treatment, effect on crop; e: wheat; conditions: soil treatment, treatment dosage 320 g/ha
How it was run: as §1

wild oat = test: Test Example 3: weedkilling efficacy through soil treatment; G: wild oat; conditions: soil treatment, treatment dosage 320 g/ha
How it was run: as §1

chickweed = test: Test Example 3: weedkilling efficacy through soil treatment; N: chickweed; conditions: soil treatment, treatment dosage 320 g/ha
How it was run: as §1

bulrush [7] = test: Test Example 1: weedkilling efficacy, preemergent weed treatment in the submerged state; B: bulrush; conditions: treatment dosage 320 g/ha
How it was run: as §6

fig-leafed goosefoot = test: Test Example 3: weedkilling efficacy through soil treatment; M: fig-leafed goosefoot; conditions: soil treatment, treatment dosage 320 g/ha
How it was run: as §1

Row | SMILES | E: green foxtail, weedkilling efficacy grade (green foxtail) | F: barnyard grass, weedkilling efficacy grade (barnyard grass [1]) | K: Indian mallow, weedkilling efficacy grade (Indian mallow) | P: birds-eye speedwell, weedkilling efficacy grade (birds-eye speedwell) | b: directly sown rice, effect on crop grade (directly sown rice) | f: beet, effect on crop grade (beet) | d: soybean, effect on crop grade (soybean) | D: crabgrass, weedkilling efficacy grade (crabgrass) | H: black-grass, weedkilling efficacy grade (black-grass) | J: common wind-grass, weedkilling efficacy grade (common wind-grass) | g: rapeseed, effect on crop grade (rapeseed) | I: Italian ryegrass, weedkilling efficacy grade (Italian ryegrass) | c: corn, effect on crop grade (corn) | L: redroot pigweed, weedkilling efficacy grade (redroot pigweed) | e: wheat, effect on crop grade (wheat) | G: wild oat, weedkilling efficacy grade (wild oat) | N: chickweed, weedkilling efficacy grade (chickweed) | also measured
1 | CC(C)(C(=O)Nc1ccc2ccccc2n1)N1COCN(c2ccccc2)C1=O [A-1-24] | 3 (weed kill ratio 40% or more, less than 70%) | 2 (weed kill ratio 20% or more, less than 40%) | 0 (weed kill ratio 5% or less (practically no effect)) | 4 (weed kill ratio 70% or more, less than 90%) | 0 (weed kill ratio 5% or less (practically no effect)) | 0 (weed kill ratio 5% or less (practically no effect)) | 0 (weed kill ratio 5% or less (practically no effect)) | 3 (weed kill ratio 40% or more, less than 70%) | 1 (weed kill ratio 5% or more, less than 20%) | 4 (weed kill ratio 70% or more, less than 90%) | 0 (weed kill ratio 5% or less (practically no effect)) | 3 (weed kill ratio 40% or more, less than 70%) | 0 (weed kill ratio 5% or less (practically no effect)) | 0 (weed kill ratio 5% or less (practically no effect)) | 0 (weed kill ratio 5% or less (practically no effect)) | 0 (weed kill ratio 5% or less (practically no effect)) | 0 (weed kill ratio 5% or less (practically no effect)) | C: oval-leafed pondweed, weed kill grade (oval-leafed pondweed [2]): 5 (weed kill ratio 90% or more, (practically complete withering)); B (bulrush) weedkilling efficacy grade (bulrush [3]): 5 (weed kill ratio 90% or more, (practically complete withering)); A: barnyard grass, weed kill grade (barnyard grass [4]): 5 (weed kill ratio 90% or more, (practically complete withering)); C (oval-leafed pondweed) weedkilling efficacy grade (oval-leafed pondweed [5]): 5 (weed kill ratio 90% or more, (practically complete withering)); a: transplanted rice, effect on crop grade (transplanted rice): 0 (weed kill ratio 5% or less (practically no effect)); A (barnyard grass) weedkilling efficacy grade (barnyard grass [6]): 4 (weed kill ratio 70% or more, less than 90%); B: bulrush, weed kill grade (bulrush [7]): 5 (weed kill ratio 90% or more, (practically complete withering))
2 | CC(C)(C(=O)Nc1cc(Cl)cc(Cl)n1)N1COCN(c2ccccc2)C1=S [A-2-18, N-(4,6-dichloropyridin-2-yl)-2-methyl-2-(5-phenyl-4-thioxo-1,3,5-oxadiazinan-3-yl) propionamide] | 5 (weed kill ratio 90% or more, (practically complete withering)) | 5 (weed kill ratio 90% or more, (practically complete withering)) | 2 (weed kill ratio 20% or more, less than 40%) | 5 (weed kill ratio 90% or more, (practically complete withering)) | 5 (weed kill ratio 90% or more, (practically complete withering)) | 3 (weed kill ratio 40% or more, less than 70%) | 0 (weed kill ratio 5% or less (practically no effect)) | 5 (weed kill ratio 90% or more, (practically complete withering)) | 5 (weed kill ratio 90% or more, (practically complete withering)) | 5 (weed kill ratio 90% or more, (practically complete withering)) | 3 (weed kill ratio 40% or more, less than 70%) | 5 (weed kill ratio 90% or more, (practically complete withering)) | 1 (weed kill ratio 5% or more, less than 20%) | 3 (weed kill ratio 40% or more, less than 70%) | 0 (weed kill ratio 5% or less (practically no effect)) | 3 (weed kill ratio 40% or more, less than 70%) | 3 (weed kill ratio 40% or more, less than 70%) | M: fig-leafed goosefoot, weedkilling efficacy grade (fig-leafed goosefoot): 3 (weed kill ratio 40% or more, less than 70%)

Source: patent US9738634B2, “Heterocyclic amide compound and herbicide” (SYNGENTA PARTICIPATIONS AG, priority 2013, dated 2017)
